Source: publication PMC3475447 (Bioscience Reports, 2012)

Target: T1, ATPBD of A. fulgidus CopB (Strep-tagged) (Archaeoglobus fulgidus, UniProt O30085)
T1 sequence (O30085 372-636): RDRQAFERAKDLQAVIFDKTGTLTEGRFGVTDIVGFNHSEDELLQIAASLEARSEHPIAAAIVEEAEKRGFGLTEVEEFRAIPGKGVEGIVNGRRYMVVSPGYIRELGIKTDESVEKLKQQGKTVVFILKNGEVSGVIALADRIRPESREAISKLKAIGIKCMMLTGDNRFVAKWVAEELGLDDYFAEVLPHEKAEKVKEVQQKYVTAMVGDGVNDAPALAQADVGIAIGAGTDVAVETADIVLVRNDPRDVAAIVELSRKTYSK
Test: biochemical

Nc1ncnc2c1ncn2[C@@H]1O[C@H](COP(=O)(O)OP(=O)(O)OP(=O)(O)O)[C@@H](O)[C@H]1O [ATP]
Kd: 34 ± 2 µM
